Data reported in patent US20220267288A1, “CARDIAC THERAPEUTIC” (priority 2019, published 2022).
Each block holds one compound with its values, some of them ahead of it.

Columns and labels:
[1] = test system: dogs; assay: Electrophysiological variables (AERP, VERP, repolarization periods) in halothane-anesthetized dogs; assay type: in vivo, dog; details: 3 mg/kg
Description: Animals were obtained through Kitayama Labes Co., Ltd. (Nagano, Japan). All experiments were approved by the Toho University Animal Care and User Committee (No. 18-51-395) and performed according to the Guideline for the Care and Use of Laboratory Animals of Toho University.
The dogs were initially anesthetized with thiopental sodium (30 mg/kg, i.v.). After intubation with a cuffed endotracheal tube, anesthesia was maintained by inhalation of halothane (1% v/v) vaporized in oxygen with a volume-limited ventilator (SN-480-3; Shinano Manufacturing Co., Ltd., Tokyo, Japan). Tidal volume and respiratory rate were set at 20 mL/kg and 15 breaths/min, respectively. […] To prevent blood clotting, heparin calcium (100 IU/kg) was intravenously administered through a flush line of the catheter sheath placed at the right femoral vein.
The lead II electrocardiogram was obtained from the limb electrodes. The P-wave duration, PR interval, QRS width and QT interval were measured, and QT interval was corrected with Van de Water's formula: QTc=QT-0.087×(RR-1,000) with RR given in ms. The J-Tpeak and Tpeak-Tend were measured as follows. When the end of T-wave was obscure, we used the monophasic action potential (MAP) signal as a guide to estimate the end. The J-Tpeak was corrected for the heart rate with a coefficient as previously described (J-Tpeakc=J-Tpeak/RR^0.58 with RR given in seconds).
A standard 6-French, quad-polar electrodes catheter (Cordis-Webster Inc., Baldwin Park, Calif., USA) was positioned at the non-coronary cusp of the aortic valve through the left femoral artery to obtain the His bundle electrogram. Another 6-French, quad-polar electrode catheter (Cordis-Webster Inc.) was positioned at the sinus nodal areas of the right atrium through the right femoral vein to electrically pace and to record the local electrogram. A bi-directional steerable MAP recording/pacing combination catheter (1675P; EP Technologies, Inc., CA, USA) was positioned at the endocardium of the interventricular septum in the right ventricle through the left femoral vein to obtain MAP signals. The signals were amplified with a DC preamplifier (model 300; EP Technologies, Inc.). The duration of the MAP signals was measured as an interval, along a horizontal line corresponding to the diastolic baseline, from the MAP upstroke to the desired repolarization level. The interval (ms) at 90% repolarization was defined as MAP90.
The heart was electrically driven with a cardiac stimulator (SEC-3102; Nihon Kohden Co., Ltd.) via the pacing electrodes of the combination catheter placed in the right ventricle or the electrodes of the catheter placed at the right atrium. The stimulation pulses were rectangular in shape, 1-2 V (about twice the threshold voltage) and 1 ms duration. The MAP90 of the ventricle was measured during sinus rhythm (MAP90(sinus)) and at a pacing cycle length of 400 ms (MAP90(CL400)) and 300 ms (MAP90(CL300)). The atrial effective refractory period (AERP) and ventricular effective refractory period (VERP) were assessed with the programmed electrical stimulation. The pacing protocol consisted of 5 beats of basal stimuli in a cycle length of 400 ms followed by an extra stimulus of various coupling intervals. Starting in the late diastole, the coupling interval was shortened in 5-ms decrements until the additional stimulus could no longer elicit a response. The AERP and VERP were defined as the shortest coupling interval that could produce a response. The duration of the terminal repolarization period of the ventricle, reflecting phase-3 repolarization time of the action potential, was calculated by the difference between the MAP90(CL400) and VERP (terminal repolarization period=MAP90(CL400)−VERP) at the same site to estimate the extent of electrical vulnerability of the ventricular muscle.

[2] = test system: CYP2J2
Description: The human ES cell line (H7 ESCs) with a knocked in, constitutively expressed Genetically Encoded Calcium Indicator (GECI) GCaMP6s was maintained on matrigel coated plates in StemMACS™ iPS-Brew XF (Miltenyi Biotec) and passaged in clumps using Collagenase IV (1 mg/mL) enzymatic treatment. For differentiation, ESCs were passaged in single cells using Accutase (Nacalai Tesque), and subjected to the previously established small molecule based GiWi cardiomyocyte differentiation protocol. At Day 7, the media was replaced with RPMI1640 (HyClone) supplemented with B27 with insulin (B27+) (Miltenyi Biotec) for maturation and refreshed every 2 days. […] The cardiomyocytes (H7 CMs) were used for siRNA transfections on day 28. […]
RNA samples (250 ng) were reverse transcribed to obtain cDNA using High-Capacity cDNA Reverse Transcription Kit (Applied Biosystems, U.S.A.). qPCR was performed using the FAST SYBR Green Mix (Applied Biosystems, U.S.A.) on 5 ng of cDNA. ΔΔCT-based relative quantification method was adopted for qPCR analysis using the QuantStudio 5 384-well Block Real-Time PCR system (Applied Biosystems, U.S.A.). The threshold cycle was determined to be Data is presented as fold-change where CT values were normalised to β-ACT/N. Data presented are representative of two independent experiments with error bars indicative of the standard deviation (SD) unless otherwise stated.

[3] = test system: H9c2 cells; assay: Reduction of intracellular ATP (Mitochondrial ToxGlo) in differentiated H9c2 cells; assay type: cell-based; details: 0-1 μM pre-treatment 2 h, then dronedarone
Description: (§1) H9c2 cell line was purchased from American Tissue Type Collection (ATCC) (Manassas, Va.). The cells were cultured in low-glucose DMEM growth media (Cat No: 31600, Thermo Fisher Scientific, Waltham, Mass.) supplemented with 1.5 g/L sodium bicarbonate, 25 mM HEPES, 10% fetal bovine serum (FBS) (GE Healthcare, Singapore), 100 units/mL penicillin, 100 μg/mL streptomycin and 250 ng/mL amphotericin B in 75-cm^2 tissue-culture flasks at 37° C. in a humidified atmosphere of 5% CO2. Cells were fed every 2-3 days and sub-cultured once 70-80% confluency was achieved to prevent the loss of differentiation potential. For differentiation, H9c2 cells were seeded at a density of 100,000 cells/well in 12-well plates. The cells were maintained for 1 day in low-glucose high-serum growth media to allow for cell attachment. Subsequently, cells were differentiated using 1 μM ATRA.
H9c2 cells were seeded in a white chimney plate and differentiated. The media was changed to DMEM with 10 mM galactose, 2 mM glutamine (6 mM final), 5 mM HEPES, 1 mM sodium pyruvate, 100 U/mL penicillin, 100 μg/mL streptomycin, 0.25 μg/mL amphotericin B, 1% FBS, 1× insulin-transferrin-selenium and 1 μM ATRA for 48 h to overcome the Crabtree effect. […] The cytotoxicity and intracellular ATP content were measured concurrently using Mitochondrial ToxGlo™ kit (Promega, Madison, Wis.) using manufacturer's protocol. Mitochondrial ToxGlo™ assay measures the cell viability using fluorogenic peptide bis-alanine-alanine-phenylalanine-R110 (bis-AAF-R110). Bis-AAF-R110 is a selective peptide that measures protease activity in dead cells since it is impermeable to live cells. Here, the fluorescence derived from metabolized bis-AAF-R110 was measured at different concentrations of the test compounds and compared to control. As the concentration of cytotoxic compound increases, the number of dead cells increases, leading to a higher fluorescence signal. ATP is measured by adding the ATP Detection Reagent, resulting in cell lysis and generation of a luminescent signal proportional to the amount of ATP present. […]

[4] = test system: H9c2 cells; assay: Mitochondrial membrane potential (Δψm) dissipation, TMRM dye; assay type: cell-based; details: pre-treatment, then dronedarone at 5 μM
Description: as §1
Dissipation of Δψm by each test compound was measured using mitochondrial permeable dye, tetramethylrhodamine methyl ester perchlorate (TMRM) (Thermo Fisher Scientific, Waltham, Mass.). […] The media was aspirated, the cells were washed with PBS and fluorescence was measured at 557 nm excitation and 570 nm emission wavelengths. […] The media was aspirated and then the cells were treated with dronedarone and the dissipation of Δψm by AADs was measured as described.

[5] = molecular target: T1, CYP2J2 (Homo sapiens, UniProt P51589); assay: Time- and concentration-dependent inactivation (MBI) of CYP2J2, rivaroxaban as probe substrate; assay type: biochemical; design: purchased BD Gentest (Woburn, Mass.)
T1 sequence (P51589 1-502): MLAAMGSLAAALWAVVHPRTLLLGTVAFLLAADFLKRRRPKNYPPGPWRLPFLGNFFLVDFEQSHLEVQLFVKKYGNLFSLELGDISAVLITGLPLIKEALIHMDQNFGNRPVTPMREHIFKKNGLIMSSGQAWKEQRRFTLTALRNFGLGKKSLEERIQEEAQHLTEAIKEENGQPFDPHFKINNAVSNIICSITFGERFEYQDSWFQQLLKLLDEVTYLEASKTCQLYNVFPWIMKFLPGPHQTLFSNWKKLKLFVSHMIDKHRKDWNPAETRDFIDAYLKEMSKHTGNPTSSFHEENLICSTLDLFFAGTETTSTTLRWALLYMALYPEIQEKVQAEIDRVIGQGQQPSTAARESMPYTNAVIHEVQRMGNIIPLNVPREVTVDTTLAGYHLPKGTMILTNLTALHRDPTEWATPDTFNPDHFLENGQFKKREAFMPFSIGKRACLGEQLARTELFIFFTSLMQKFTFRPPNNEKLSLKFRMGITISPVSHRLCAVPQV
Description: Incubations were conducted in triplicates in 96-well plates. Primary incubation mixtures comprising various concentrations of inhibitor (0-20 μM) were pre-incubated at 37° C. for 3 min with CYP450 enzymes (20 pmol/m L) and NADPH B in potassium phosphate buffer (100 mM, pH 7.4). To initiate the enzymatic reaction, 5 μL NADPH A was added to the primary incubation. The final primary incubation mixture volume was 100 μL and contained <1% v/v organic solvent. At different pre-incubation time points (3, 8, 15, 22, 30, and 45 min) after the addition of NADPH A, 5 μL aliquots of the primary incubation were transferred to 95 μL of the secondary incubation containing 50 μM rivaroxaban, the NADPH A and B, and potassium phosphate buffer (100 mM, pH 7.4) to yield a 20-fold dilution. The secondary incubation mixtures were incubated at 37° C. for 30 min with CYP2J2, before 80 μL aliquots were removed and quenched with an equal volume of ice-cold ACN containing 4 μM dexamethasone as IS. The samples were then centrifuged at 3220 g at 4° C. for 30 min before transferring the supernatant to a 96-well plate for liquid chromatography-tandem mass spectrometry (LC-MS/MS) analysis. The main rivaroxaban metabolite, morpholinone hydroxylated metabolite, was quantified using LC-MS/MS analysis.
The mean of triplicate peak area ratios for each concentration and pre-incubation time was normalized to that of 0 μM with the same pre-incubation time. The amount of rivaroxaban metabolite formed during the secondary incubation, a measure of the probe substrate activity remaining, was computed and the natural logarithm of this measure was plotted against inactivation pre-incubation time for each inactivator concentration. […]
In equation 1, kinact=maximum inactivation rate constant at infinite inactivator concentration (in min^−1); KI=concentration of inactivator at the half-maximal rate constant of inactivation (in μM); [I]=in vitro inactivator concentration (in μM). MBI potency (kinact/KI ratio, μM-1·min-1) against human recombinant CYP2J2 is determined for each compound. […]

[6] = test system: hiPSC-CM; assay: Extracellular field potential duration (FPD), multi electrode array; assay type: cell-based, human; details: MEA, 0-10 μM
Description: Electrophysiological perturbations of hiPSC-CM were measured using multi electrode array (MEA) recording system (Multichannel Systems, Reutlingen, Germany). […] FPD measurements were normalized (corrected FPD [cFPD]) to the beating rate of the contracting areas with the Bazzet correction formula: cFPD=FPD/√(RR interval) as described previously^3. One-phase decay algorithm was used to plot corrected FPD curves.

- ΔJ-Tpeakc (early repolarization period) ([1]; 20 min after administration): +31
- ΔTRP (terminal repolarization period) ([1]; 20 min after administration): +4
- ΔTpeak-Tend (late repolarization period) ([1]; 20 min after administration): +14
Compound: CC(C)COCC(CN(Cc1ccccc1)c1ccccc1)N1CCCC1 (stereo not shown) [bepridil]
- Atrial selectivity (ΔAERP/ΔVERP) ([1]; 10 min after administration): 3.0
- ΔAERP ([1]; 10 min after administration): +53
- ΔVERP ([1]; 10 min after administration): +55

Compound: siRNA1: Accell self-delivery siRNA against CYP2J2, CUCAGGUGUAAUAUUGUUA, SEQ ID NO: 1 (Accell self-delivery modifications, pattern not given here)
- knockdown of CYP2J2, in words [2]: most effective

- ΔJ-Tpeakc (early repolarization period) ([1]; 10 min after administration): +35
- ΔTRP (terminal repolarization period) ([1]; 10 min after administration): −1
- ΔTpeak-Tend (late repolarization period) ([1]; 10 min after administration): +17
Compound: CC(C)NCC(O)c1ccc(NS(C)(=O)=O)cc1 (racemic) [dl-sotalol]
- Atrial selectivity (ΔAERP/ΔVERP) ([1]; 20 min after administration): 1.1
- ΔAERP ([1]; 20 min after administration): +60
- ΔVERP ([1]; 20 min after administration): +53
- Atrial selectivity (ΔAERP/ΔVERP) ([1]; 30 min after administration): 1.0
- ΔAERP ([1]; 30 min after administration): +56
- ΔVERP ([1]; 30 min after administration): +54

Compound: CCCCCC1OC1C/C=C\C/C=C\C/C=C\CCCC(=O)O (stereo not shown) [14,15-EET]
- effect of pre-treatment on dronedarone-induced decrease in intracellular ATP [3]: mitigated the decrease in intracellular ATP levels in a concentration-dependent manner
- effect of pre-treatment on dronedarone-induced Δψm dissipation [4]: concentration-dependent mitigation of Δψm dissipation

Compound: Cl.[2H]c1c([2H])c(C(=O)c2c(CCCC)oc3ccc(NS(C)(=O)=O)cc23)c([2H])c([2H])c1OCCCN(CCCC)CCCC [Compound 2]
- inactivation (MBI) of CYP2J2, in words [5]: inactivated CYP2J2 in a time- and concentration-dependent manner

- ΔJ-Tpeakc (early repolarization period) ([1]; 15 min after administration): −10
- ΔTRP (terminal repolarization period) ([1]; 15 min after administration): −11
- ΔTpeak-Tend (late repolarization period) ([1]; 15 min after administration): +18
Compound: CCCCc1oc2ccccc2c1C(=O)c1cc(I)c(OCCN(CC)CC)c(I)c1 [Amiodarone]
- effect on extracellular field potential duration (FPD) [6]: Dose-dependent increase in the FPD
- ΔAERP ([1]; 60 min after administration): +29
- ΔVERP ([1]; 60 min after administration): +18
